Values quoted from earlier work as cited in patent US9718036B2, “Method of preparing carrier liquids” (The University of Liverpool, priority 2011, dated 2017).
Values after ≈ are worked out from the molar mass of the structure shown.

Details: at 20° C.

In the case of CC1(C)C(/C=C(\Cl)C(F)(F)F)C1C(=O)OC(C#N)c1cccc(Oc2ccccc2)c1 (stereo not shown) [λ-cyhalothrin], the solubility in water is listed as 5 µg/mL (≈ 11.1 µM).
